Results as given in patent US9474793B2, “Vaccines and methods for prevention and treatment of drug-resistant HIV-1 and hepatitis B virus” (The United States of America, as represented by the …, priority 2005, dated 2016).
Values joined by “and” are separate entries in the source; they are usually repeats but may differ in a detail not shown here. Equal entries are not always repeated. “Also recorded” adds a separate entry of the source. Where two headings read alike, the source gives them in different places.

Assays:
[1] = system: RT-WT specific CTL lines; assay: Recognition of RT-variant peptides by RT-WT-specific CTL lines (FIG. 2); details: E/T ratio 10:1
Description: (§1) CTL activity was measured using a 4-hr assay with ^51Cr-labeled target cells (Okazaki et al., J Immunol 2003, 171(5):2548-2555). Target cells (10^6) were pulsed in 100 μl of CTM and 150 μCi ^51Cr for 1.5 hr, washed three times, and added at 3,000 cells/well to the 96-well round-bottom plates with different peptide concentrations. Effector cells were introduced 2 h later. Then, the supernatants were harvested and counted following an additional 4-hr incubation. The percentage of specific ^51Cr release was calculated as 100×(experimental release−spontaneous release)/(Maximum release−spontaneous release). Spontaneous release was determined from target cells incubated in the absence of effector cells. Maximum release was determined in the presence of 0.1 M HCl. C1R.AAD cell lines served as target cells.

[2] = target: T1, HLA-A2.1 molecules (Homo sapiens, UniProt P04439, D140Y/D185E/D98H/E176V/E277Q/G131W/G231S/I119V/I121R/I166T/I218V/L300P/L318F/N151K/N90K/P208A/P217A/Q86G/Q94H/R138H/R169H/T345S); type: binding
[3] = cited from earlier work
[4] = system: HIV; details: patients infected with HIV; cited from earlier work
[5] = system: RT-WT peptide-pulsed C1R.AAD target cells; assay: 51Cr-release cytotoxicity assay: recognition of RT-WT by peptide-specific CTL lines from HHD-transgenic mice; details: FIGS. 3-5; E/T ratio 10:1
Description: Mice more than eight weeks of age were immunized subcutaneously in the base of the tail with 100 μl of an emulsion containing 1:1 incomplete Freund's adjuvant (IFA) and PBS solution with antigens and cytokines (50 nmol CTL epitope, 50 nmol HBV core 128-140 helper epitope, 5 μg of IL-12 and 5 μg of granulocyte-macrophage colony stimulating factor). Mice were boosted two weeks later. Spleens were removed 10-14 days after the boost. Immune spleen cells (2.5×10^6/well) were stimulated in 24-well plates with autologous spleen cells (5×10^6/well) pulsed for 2 h with 10 μM CTL epitope peptide in CTM supplemented with 10% T-Stim (Collaborative Biochemical Products, Bedford, Mass.). Following more than 4 in vitro stimulations with peptide-pulsed syngeneic spleen cells, CTL lines were maintained by weekly restimulation of 1×10^6 CTL/well with 4×10^6 peptide pulsed irradiated (3,300 rads) gynogeneic spleen cells as feeders, or by weekly stimulation of 1×10^6 CTL/well with 3.8×10^6 peptide pulsed irradiated C57BL/6 spleen cells and 1-3×10^5 peptide pulsed and irradiated (15,000 rad) Jurkat-A2K^b transfectant cells.
as §1

[6] = target: T1, HLA-A2.1 molecules; details: Okazaki et al. 2003; cited from earlier work
[7] = type: physicochemical
Description: CTL peptides of the present invention, including the CTL peptide […] (SEQ ID NO:6; […]. The CTL peptide […] (SEQ ID NO:6; […]. The recommended storage of intact vials of the CTL peptide […] (SEQ ID NO:6; […].
Further, the CTL peptide […]

[8] = type: physicochemical; details: mixed with Montanide ISA-51 (300 μg dose)
Description: When the CTL peptide […] (SEQ ID NO:6; […]

VIYQYMDDL (conserved HLA-A2-restricted cytotoxic T lymphocyte (CTL) epitope in human immunodeficiency virus 1 (HIV-1) drug-sensitive wild-type reverse transcriptase (RT-WT), residues 179-187)
Recognition of the peptide by RT-WT-specific CTL [1]: recognized

YLYQYVDDV
FI0.5 (concentration required to give an FI of 0.5) [2]: 0.245 µM and 0.176 to 0.245 µM

sargramostim: glycosylated, recombinant human sargramostim; position 23 arginine replaced with leucine, expressed in yeast
stability after reconstitution ([3]; 250 μg vial reconstituted with bacteriostatic water for injection, refrigerator): 20 days
stability after initial entry into the vial ([3]; 500 μg/ml liquid): up to 20 days
effect on viral load [4]: slight decrease
impact on the CD4 count [4]: little impact
safety [4]: safe

VLYQYMDDV [RT-2L9V]
Recognition of RT-WT by the peptide-specific CTL line [5]: most strongly among all four CTL types
binding ability to HLA-A2 relative to RT-WT [6]: approximately 8 fold

VLYQYVDDV
Recognition of RT-WT by the peptide-specific CTL line [5]: to some extent; also recorded: slightly weaker than that of RT-2L9V specific CTL
freeze-thaw-freeze cycles through which the peptide is stable [7]: at least two
degradation by HPLC ([7]; 1.6 mg/ml, 4° C. and 22° C., by 7 days): No degradation
loss by adsorption onto the borosilicate glass vial ([7]; at the concentrations to be used for vialing): not significantly lost
storage stability ([7]; controlled room temperature (15° C.-30° C.)): 3 months
storage stability ([7]; freezer (−10° C. to −25° C. and −70° C.)): at least 18 months
storage stability ([7]; refrigerator (2° C.-8° C.)): at least 9 months
physical stability of the emulsion [8]: 3 h
